By IC50 is commonly meant the concentration that gives 50% inhibition. Usually LD50 stands for the dose at which mortality reaches 50%. A low value points to a more toxic substance.

Where only a bound is given, the exact number is not on record here.

One series has as its target T1, α-Glucosidase (Saccharomyces cerevisiae, UniProt P53341).
T1 construct: purchased Sigma Aldrich G0660-750UN
As to the kind of experiment: biochemical. Particulars: read-out: IC50 value, α-Glucosidase inhibitory activity. Here is the method: α-Glucosidases, enzymes anchored in the brush border of the small intestine, are responsible for catalysing the hydrolysis of carbohydrates.
α-Glucosidase (G0660-750UN, Sigma Aldrich, St. Louis, MO) and 4-nitrophenyl α-D-glucopyranoside (PNPG, Macklin) were dissolved in phosphate buffer (pH 6.8, 100 mM), and the test compounds were dissolved in DMSO solution. The experiment was divided into blank group, control group, sample blank group and sample group. The reagents were loaded in 96-well plates at the dose of the table (Table 3). The solution was bathed in 37 °C water for 10 min, after the end, enzyme solution was added. After reaction at 37 °C for 20 min, 70 µL Na2CO3 solution ([…]) was added to stop the reaction. All experiments were run in triplicate. […] Since PNPG can produce glucose and p-nitrophenol (PNP) under the action of α-glucosidase, PNP has the greatest absorption at 405 nm. The absorbance was determined by the microplate reader, and the inhibition rate of α-glucosidase and the IC50 value of each sample were calculated according to the formula. Inhibition rate %={[(AC−AB)−(AS−ASB)]/(AC−AB)}×100% where AC is the absorbance of control group; AB is the absorbance of blank group; AS is the absorbance of sample group; ASB is the absorbance of sample blank group.

Series [1] deals with AGEs (advanced glycation end products) formation. As to the kind of experiment: In vitro inhibitory activity of AGEs formation (bovine serum albumin/glucose, fluorescence). The protocol: Advanced glycation end products are a group of complex and heterogeneous compounds, which are implicated in a number of biochemical abnormalities associated with diabetes[21]^,[22]. Therefore, the discovery of AGEs inhibitors would be beneficial to the prevention and treatment of diabetic or other pathogenic complications.
To prepare the AGE reaction solution, 10 mg/ml of bovine serum albumin in 50 mM PBS (pH 7.4) was added to 0.2 M glucose, and 0.02% sodium azide was added to prevent bacterial growth. The reaction mixture (3 ml) was then mixed with various concentrations (0.5–1000 µg/ml) of the target compounds (1 ml) dissolved in DMSO. After incubating at 37 °C for 14 d, the fluorescence intensity of AGE was determined by a fluorospectrophotometer (PE, Cincinnati, OH) with excitation and emission wavelengths at 350 nm and 420 nm[30], respectively. All experiments were run in triplicate. Aminoguanidine hydrochloride was used as a reference compound. The inhibition rate of AGEs formation and the IC50 value of each sample were calculated according to the formula. Inhibition rate %={[(AC−AB)−(AS−ASB)]/(AC−AB)}×100% where AC is the absorbance of control group (1.0 ml glucose +1.0 ml bovine serum albumin +1.0 ml sodium azide +1.0 ml DMSO); AB is the absorbance of blank group (1.0 ml PBS +1.0 ml bovine serum albumin +1.0 ml sodium azide +1.0 ml DMSO); AS is the absorbance of sample group (1.0 ml glucose +1.0 ml bovine serum albumin +1.0 ml sodium azide +1.0 ml target compound solution or aminoguanidine hydrochloride solution); ASB is the absorbance of sample blank group (1.0 ml PBS +1.0 ml bovine serum albumin +1.0 ml sodium azide +1.0 ml target compound solution or aminoguanidine hydrochloride solution).

A further series deals with T2, aldose reductase (ALR2) (Mus musculus, UniProt P45376).
T2 construct: After homogenisation and centrifugation, the crude ALR2 from mice was obtained; from tissue
As to the kind of experiment: In vitro ALR2 inhibitory activity (crude enzyme, NADPH decrease at 340 nm). Format: biochemical, mice. Conditions: read-out: IC50 value, ALR2 inhibitory activity. The protocol: The enzyme aldose reductase (ALR2) is a member of the aldo–keto reductase superfamily. The development and progression of chronic diabetic complications are confirmed to be quite related to the activation and/or over expression of ALR2[25]. Therefore, ALR2 inhibitors may play a critical role in preventing or treating these complications.
After homogenisation and centrifugation, the crude ALR2 from mice was obtained. The inhibitory activity of the compounds on ALR2 was carried out using crude enzyme and different concentrations of the compounds (1–1000 µg/ml) in 200 mM PBS (pH 6.2) containing 0.10 mM NADPH. The reaction was initiated by addition of glyceraldehyde and the decrease in the optical density of NADPH at 340 nm was recorded for 3 min. All experiments were run in triplicate. IC50 of the compounds was calculated. The flavonoid quercetin was used as a reference in the ALR2 assay.

Series [2] can be described thus: Oral toxicity to mice (Lorke's method). Particulars: both sexes, mouse, in vivo, Kunming mice, 14 days observation. The protocol: With reference to Lorke’s method, Kunming mice were used as targets to estimate oral toxicity of each compound to mice. We select compounds 3c, 3e, and 7c at concentrations of 10, 100, and 1000 mg/kg to test their oral toxicity in the first phase, and 1600, 2900, and 5000 mg/kg at the second phase. […] No death and no appetite-suppressant effect were detected in the tested mice in 14 days. […].
Experiments were performed on Kunming mice (male and female half, body weight range, 25–30 g). Mice were housed in a climate and light controlled room with a 12 h light/dark cycle. Twelve hours before experiments, food was withheld, but animals had free access to drinking water. The compounds were suspended in vehicle (Tween-80, 0.2% in saline). The concentrations were adjusted to orally administrate 0.2 ml/10 g of bw (body weight). Mice were treated in two phases. In the first, intragastric doses of 10, 100 and 1000 mg/kg of bw of compounds were administered. On the second, the doses were adjusted to 1600, 2900 and 5000 mg/kg of bw of compounds. In both phases, mice were observed daily in a period of 14 days for mortality, toxic effects and/or changes in behavioural pattern. At the end of the experiments, the mice were sacrificed in a CO2 chamber.

T1 sequence (P53341 whole entry): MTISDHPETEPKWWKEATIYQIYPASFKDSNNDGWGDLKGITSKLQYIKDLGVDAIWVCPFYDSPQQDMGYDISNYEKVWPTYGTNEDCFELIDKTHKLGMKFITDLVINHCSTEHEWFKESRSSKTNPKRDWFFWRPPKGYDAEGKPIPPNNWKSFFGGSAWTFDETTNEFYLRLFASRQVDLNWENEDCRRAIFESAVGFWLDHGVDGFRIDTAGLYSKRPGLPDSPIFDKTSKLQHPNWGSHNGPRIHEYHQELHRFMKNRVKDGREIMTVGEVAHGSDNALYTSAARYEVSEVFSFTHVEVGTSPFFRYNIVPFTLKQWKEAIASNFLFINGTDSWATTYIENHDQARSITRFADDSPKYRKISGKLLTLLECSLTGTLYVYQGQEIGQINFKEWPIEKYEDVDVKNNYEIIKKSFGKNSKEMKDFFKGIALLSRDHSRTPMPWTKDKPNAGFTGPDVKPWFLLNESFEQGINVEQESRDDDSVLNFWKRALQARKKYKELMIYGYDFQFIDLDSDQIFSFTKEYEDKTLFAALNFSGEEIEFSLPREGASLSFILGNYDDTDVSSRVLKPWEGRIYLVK

Take `COc1cc(/C=C/c2ccc(OCCCCCCO[N+](=O)[O-])cc2)cc(OC)c1` [3c]: the IC50 was 83.1 ± 16.2 µM on α-Glucosidase; 1.49 ± 0.2 µM in series [1] (50% inhibition of fluorescence intensity of AGE relative to 0.1% DMSO, mean ± SD (n = 3)); 299 ± 22.6 µM on aldose reductase (ALR2). The “AGEs formation inhibitory activity compared with positive reference AG” value in series [1] (ratio to AG) is reported as “over 100 folds”. In addition, the LD50 at 14 days in series [2] was greater than 5000 mg/kg.

The values above are taken from article PMC7011920, “Synthesis and biological evaluation of stilbene derivatives coupled to NO donors as potential antidiabetic agents” (Journal of Enzyme Inhibition and Medicinal Chemistry, 2018).
